Measured values taken from patent US10011571B2, “Preparation method for aromatic heterocyclic compound used as selective JAK3 and/or JAK1 kinase inhibitor and application of aromatic heterocyclic compound” (SHENZHEN CHIPSCREEN BIOSCIENCES, LTD., priority 2014, dated 2018).
Structures can show the parent of a compound that is named as a salt.

Tests used:
JAK3 = JAK3 (Homo sapiens (Human), UniProt P52333); experiment: Z'-LYTE enzymatic activity detection, JAK3; type: biochemical; details: test compound 30 nM; for inhibition at 0.03 µM: read-out: JAK3 % inhibitory rate @30 nM
JAK3, sequence (P52333 whole entry): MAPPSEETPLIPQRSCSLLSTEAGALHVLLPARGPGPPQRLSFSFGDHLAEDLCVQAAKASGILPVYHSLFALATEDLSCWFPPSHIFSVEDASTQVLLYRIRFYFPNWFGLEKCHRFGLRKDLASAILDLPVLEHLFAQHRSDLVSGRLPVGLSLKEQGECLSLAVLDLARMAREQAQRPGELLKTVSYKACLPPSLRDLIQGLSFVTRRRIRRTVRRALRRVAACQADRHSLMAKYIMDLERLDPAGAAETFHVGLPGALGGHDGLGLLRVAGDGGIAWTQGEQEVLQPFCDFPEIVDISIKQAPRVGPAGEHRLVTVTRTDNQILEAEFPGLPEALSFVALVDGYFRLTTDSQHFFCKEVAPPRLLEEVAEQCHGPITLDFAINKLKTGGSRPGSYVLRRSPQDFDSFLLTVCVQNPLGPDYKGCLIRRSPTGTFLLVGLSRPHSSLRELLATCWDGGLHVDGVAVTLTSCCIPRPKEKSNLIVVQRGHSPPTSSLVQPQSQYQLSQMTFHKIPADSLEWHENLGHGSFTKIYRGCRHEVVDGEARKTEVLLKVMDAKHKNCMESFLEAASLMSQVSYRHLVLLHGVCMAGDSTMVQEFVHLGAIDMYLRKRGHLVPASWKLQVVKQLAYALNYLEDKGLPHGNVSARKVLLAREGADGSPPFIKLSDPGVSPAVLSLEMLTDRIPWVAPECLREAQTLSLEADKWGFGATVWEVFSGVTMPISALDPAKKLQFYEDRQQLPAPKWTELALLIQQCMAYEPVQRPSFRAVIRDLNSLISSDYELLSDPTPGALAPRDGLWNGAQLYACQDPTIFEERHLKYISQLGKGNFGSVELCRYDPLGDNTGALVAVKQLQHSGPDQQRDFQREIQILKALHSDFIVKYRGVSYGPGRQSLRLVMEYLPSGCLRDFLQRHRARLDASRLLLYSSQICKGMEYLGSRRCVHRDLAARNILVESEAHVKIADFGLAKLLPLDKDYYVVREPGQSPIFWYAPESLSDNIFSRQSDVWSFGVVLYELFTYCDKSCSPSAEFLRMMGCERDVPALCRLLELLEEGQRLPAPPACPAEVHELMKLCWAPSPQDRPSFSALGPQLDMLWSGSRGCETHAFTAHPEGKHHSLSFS
Summary of the method: (§1)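 GST-tagged human recombinant kinases with Z′-LYTE peptides (Tyr6 for JAK1, Tyr4 for JAK2 and JAK3), ATP from kit, reacted 1 h at room temperature; development 1 h, ratio 445/520 nm at 400 nm excitation gives phosphorylation. Inhibition vs solvent control at 30 nM (JAK2, JAK3) or 300 nM (JAK1); tofacitinib as positive control.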

JAK1 = JAK1 (Homo sapiens (Human), UniProt P23458); experiment: Z'-LYTE enzymatic activity detection, JAK1; type: biochemical; details: test compound 300 nM; for inhibition at 0.3 µM: read-out: JAK1 % inhibitory rate @300 nM
JAK1, sequence (P23458 whole entry): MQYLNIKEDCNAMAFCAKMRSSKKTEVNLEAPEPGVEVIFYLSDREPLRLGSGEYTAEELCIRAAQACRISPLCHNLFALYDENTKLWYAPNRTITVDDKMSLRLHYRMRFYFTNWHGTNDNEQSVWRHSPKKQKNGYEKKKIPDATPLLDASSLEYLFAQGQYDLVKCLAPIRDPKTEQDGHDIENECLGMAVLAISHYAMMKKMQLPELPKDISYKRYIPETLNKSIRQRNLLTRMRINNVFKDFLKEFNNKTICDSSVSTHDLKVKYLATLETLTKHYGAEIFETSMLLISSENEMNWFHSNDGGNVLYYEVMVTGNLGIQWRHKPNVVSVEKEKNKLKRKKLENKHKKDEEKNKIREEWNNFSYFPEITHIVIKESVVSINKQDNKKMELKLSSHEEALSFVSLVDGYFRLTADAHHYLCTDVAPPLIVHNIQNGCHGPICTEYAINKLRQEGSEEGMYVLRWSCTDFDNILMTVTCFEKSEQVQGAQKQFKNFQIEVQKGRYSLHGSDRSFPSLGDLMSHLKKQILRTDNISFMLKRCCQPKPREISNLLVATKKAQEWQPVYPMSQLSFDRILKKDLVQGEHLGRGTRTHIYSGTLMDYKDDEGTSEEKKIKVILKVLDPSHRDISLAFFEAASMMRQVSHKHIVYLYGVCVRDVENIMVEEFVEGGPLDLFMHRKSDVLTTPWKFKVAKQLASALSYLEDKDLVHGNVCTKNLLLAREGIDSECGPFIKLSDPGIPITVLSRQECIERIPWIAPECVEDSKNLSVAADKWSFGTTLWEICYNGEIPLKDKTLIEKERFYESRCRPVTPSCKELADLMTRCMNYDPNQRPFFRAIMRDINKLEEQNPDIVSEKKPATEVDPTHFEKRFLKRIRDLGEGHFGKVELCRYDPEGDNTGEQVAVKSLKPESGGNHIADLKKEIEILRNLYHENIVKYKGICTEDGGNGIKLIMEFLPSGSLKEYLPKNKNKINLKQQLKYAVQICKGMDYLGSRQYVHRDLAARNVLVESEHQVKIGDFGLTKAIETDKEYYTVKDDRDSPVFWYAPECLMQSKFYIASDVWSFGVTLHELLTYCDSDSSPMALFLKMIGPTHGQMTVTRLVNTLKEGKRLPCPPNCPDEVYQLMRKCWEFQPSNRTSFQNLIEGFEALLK
Summary of the method: as §1

JAK2 = JAK2 (Homo sapiens (Human), UniProt O60674); experiment: Z'-LYTE enzymatic activity detection, JAK2; type: biochemical; details: test compound 30 nM; for inhibition at 0.03 µM: read-out: JAK2 % inhibitory rate @30 nM
JAK2, sequence (O60674 whole entry): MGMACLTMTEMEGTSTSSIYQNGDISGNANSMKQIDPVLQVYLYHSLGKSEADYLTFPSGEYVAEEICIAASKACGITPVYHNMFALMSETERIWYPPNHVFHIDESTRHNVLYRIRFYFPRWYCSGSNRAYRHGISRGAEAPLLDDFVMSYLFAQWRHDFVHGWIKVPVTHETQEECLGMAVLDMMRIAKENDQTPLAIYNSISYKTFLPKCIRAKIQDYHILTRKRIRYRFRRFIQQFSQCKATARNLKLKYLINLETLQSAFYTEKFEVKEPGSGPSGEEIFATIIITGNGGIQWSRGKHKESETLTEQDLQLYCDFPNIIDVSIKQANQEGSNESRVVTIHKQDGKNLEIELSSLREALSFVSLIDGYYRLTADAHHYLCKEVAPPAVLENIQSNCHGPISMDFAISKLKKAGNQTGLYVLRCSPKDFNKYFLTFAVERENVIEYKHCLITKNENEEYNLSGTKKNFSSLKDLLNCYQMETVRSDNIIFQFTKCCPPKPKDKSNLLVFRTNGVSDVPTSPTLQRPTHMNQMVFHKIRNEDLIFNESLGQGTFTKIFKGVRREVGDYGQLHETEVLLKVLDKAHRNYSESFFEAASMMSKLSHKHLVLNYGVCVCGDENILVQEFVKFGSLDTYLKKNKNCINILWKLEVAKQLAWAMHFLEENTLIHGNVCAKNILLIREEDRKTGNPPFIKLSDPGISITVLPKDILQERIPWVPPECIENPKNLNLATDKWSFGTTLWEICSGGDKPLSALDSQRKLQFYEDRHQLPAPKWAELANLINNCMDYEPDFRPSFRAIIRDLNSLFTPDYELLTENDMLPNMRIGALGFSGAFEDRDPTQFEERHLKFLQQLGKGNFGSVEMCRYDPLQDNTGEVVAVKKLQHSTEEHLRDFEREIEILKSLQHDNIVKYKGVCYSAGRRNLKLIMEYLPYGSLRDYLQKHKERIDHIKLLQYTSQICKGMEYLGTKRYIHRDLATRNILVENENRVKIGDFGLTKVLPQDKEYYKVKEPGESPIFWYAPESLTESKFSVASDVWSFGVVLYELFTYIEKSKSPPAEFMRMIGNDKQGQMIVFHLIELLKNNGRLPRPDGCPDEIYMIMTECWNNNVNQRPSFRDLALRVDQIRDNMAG
Summary of the method: as §1

CTLL-2 cells = experiment: Cell growth activity assay (MTS), CTLL-2 cell model; type: cell-based, mouse; details: for activity at 0.3 µM: CTLL-2, 300 nM, read-out: CTLL-2 % growth rate @300 nM
Summary of the method: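 Mouse IL-2-dependent T-cell line seeded ~20,000 cells/well, compounds added after 24 h at gradient concentrations (top 10 μM; CTLL-2 evaluation at 300 nM), cultured another 24 h. MTS/PMS added, 2 h at 37° C, absorbance 490 nm; inhibition vs DMSO control after negative-control background subtraction, GI50 calculated; triplicate.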

HeLa cells = experiment: Cell growth activity assay (MTS), HeLa cell model; type: cell-based, human; design: activity: dose or concentration left out as unconfirmed; details: 72 h; for activity: read-out: HeLa % growth rate
Summary of the method: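 HeLa human cervical cancer cells were plated at about 5000 cells/well in a 96-well plate. After 24 h, test compounds were added in concentration gradients (highest final concentration 40 μM), alongside a DMSO solvent control and a negative control. After another 72 h, the medium was replaced with 100 μL fresh medium plus 20 μL MTS/PMS (20:1). Plates were incubated 2 h at 37° C. and absorbance was read at 490 nm to give growth inhibition and GI50.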

HUVEC cells = experiment: Cell growth activity assay (MTS), HUVEC cell model; type: cell-based; details: Homo sapiens, 72 h; for activity at 10 µM: read-out: HUVEC % growth rate @10 μM
Description: MTS assay is a routine method for cell toxicity detection. The basic principle is based on the capacity of dehydrogenase in the mitochondria of living cells to reduce a novel yellow […] MTS to formazan, so that the amount of living cells is proportional to the amount of formazan product by detecting the absorbance at 490 nm (OD), thereby speculating the amount of living cells according to the OD value, and understanding the capacity of the test compound to inhibit the growth of cells or to kill the cells.
HeLa cell is a human cervical cancer cell line, and belongs to epithelial tumor cell line; HUVEC is a human umbilical vein endothelial cell, and belongs to primary endothelial cell; both types of cells express all subtypes except for JAK3.
The change of JAK kinase activity has no significant influence on other cell types except for the immune cells, and both cell models mentioned above are mainly used to evaluate whether there are any other kinase targets besides JAK kinases or there are nonselective cell toxicities.
In this experiment, a cultured cell model is incubated with the test compounds at different concentrations for a specific duration. The effect of the treatment by the test compound on the growth of cells is detected using MTS assay.
MTS is performed according to routine procedure in a 96-well plate.
The model cells are inoculated into each well of the 96-well plate at an appropriate concentration (about 5000 cells/well). After 24 h, the test compounds are added at different concentration gradients (the highest final concentration is 40 μM). A solvent control (DMSO) and a negative control are also performed at the same time. Each experiment is repeated for 3 times. The cells are detected after cultured for another 72 h.
After all culture medium is aspirated out of the well, 100 μL fresh medium and 20 μL pre-formulated mixture of MTS and PMS (in a ratio of 20:1) are added to each well. After incubation at 37° C. for 2 h, it is then detected by a microplate reader (490 nm).
The cell growth inhibitory rate and GI50 of the test compound are calculated as above.
Based on the above method, cytological evaluation is performed to the compounds described herein (for the detection of CTLL-2 cell, the concentration of the test compound is 300 nM; […]).

[1] = test system: collagen-induced arthritis (CIA) model of rats; experiment: Collagen-induced arthritis (CIA) model of rats; type: in vivo; details: rat CIA
Method: Objective: in this test, arthritis is induced by chicken collagen in Wistar rats. After in vivo administration of the compounds of Example 7 and Example 22, the change of the disease index for arthritis in rats is evaluated to determine the therapeutic effect of the test compounds on rat arthritis.
Experimental animals: 36 female Wistar rats were purchased from the animal experiment center, Sun Yat-Sen University (Guangzhou) with the body weight ranging from 180 to 200 g at the beginning of experiment. Four groups (8 rats in each group) were used as the arthritis model, and another group (4 rats) was used as normal control.
Materials: chicken type II collagen and Freund's complete adjuvant were purchased from Beijing Biolead Science and Technology Development Co., Ltd. Positive control: methotrexat (MTX).
Preparation method: the test compounds were prepared by adding them to freshly prepared 0.2% CMC-Na+0.1% Tween-80 solution in sterile water to a desired concentration and thoroughly mixing through ultrasound.
CIA model: the chicken collagen was fully emulsified in equal volume of freud's complete adjuvant, and subcutaneously injected at the tail root of the rat on day 0 for sensitization (250 μL/rat). Another injection was performed at the tail root on day 7 for supplementary immunization (100 μL/rat). After arthritis occurred (on about day 13), the rats were randomly divided into 4 groups with 8 rats in each group. Administration started on day 14 after the first immunization, and lasted for 14 days. The limbs of a rat were visually inspected, and the severity of arthritis was scored in a range from […]: 0=normal; 1=a slight symptom, with signs, such as red and swollen ankle or wrist; 2=moderate red and swollen ankle or wrist; 3=severe red and swollen paw, including toes; 4=severe swollen joint accompanied with dysfunction; the highest score for each rat was 16. The thickness of toes of posterior limbs and the paw volume were measured at the same time.
Medication: the rats were i.g. administered with the compound of Example 7 at a concentration of 40 mg/kg twice/day; or the rats were i.g. administered with the compound of Example 22 at a concentration of 40 mg/kg twice/day. For the positive control, 5 mg/kg MTX was intraperitoneally injected twice a week. The i.g. administration of solvent was used as the negative control. The data obtained 14 days after administration and before administration were compared.

[2] = 14 days after administration, Examples 40 mg/kg i.g. twice/day, MTX 5 mg/kg i.p. twice a week

Row | Compound | JAK3 RV (ratio between the inhibitory rate of the test compound and that of Xeljanz) (JAK3) | inhibition at 0.03 µM (JAK3) [%] | JAK1 RV (ratio between the inhibitory rate of the test compound and that of Xeljanz) (JAK1) | inhibition at 0.3 µM (JAK1) [%] | JAK2 RV (ratio between the inhibitory rate of the test compound and that of Xeljanz) (JAK2) | inhibition at 0.03 µM (JAK2) [%] | activity at 0.3 µM (CTLL-2 cells; Mus musculus, 24 h) [%] | activity (HeLa cells; Homo sapiens, HeLa) [%] | activity at 10 µM (HUVEC cells) [%] | also measured
1 | C=CC(=O)Nc1cc(Nc2ncc(Cl)c(NCCCNC(=O)c3ccc(F)cc3)n2)ccc1F [Example 17, N-(3-(2-(3-acrylamido-4-fluoro-phenylamino)-5-chloropyrimidinyl-4-amino)propyl)-4-fluorobenzamide] | 0.97 | 84 | 0.93 | 79 | 0.03 | 1 | 20 | 1 | 1 | –
2 | C=CC(=O)N(C)c1cc(Nc2ncc(C)c(NCCCNC(=O)c3ccc(F)cc3)n2)ccc1F [Example 19, 4-fluoro-N-(3-(2-(4-fluoro-3-(N-methylacrylamido)phenylamino)-5-methylpyrimidinyl-4-amino)propyl)benzamide] | – | 59 | – | 39 | – | 0 | 67 | 108 | 136 | –
3 | C=CC(=O)N(C)c1cc(Nc2ncc(C)c(NCCCNC(=O)c3ccc(C(F)(F)F)cc3)n2)ccc1F [Example 21, N-(3-(2-(4-fluoro-3-(N-methylacrylamido)phenylamino)-5-methylpyrimidinyl-4-amino)propyl)-4-trifluoromethylbenzamide] | 0.82 | 71 | 0.69 | 59 | 0.07 | 2 | 57 | 94 | 102 | –
4 | C=CC(=O)N(C)c1cc(Nc2ncc(Cl)c(NCCCNC(=O)C3CCN(C)CC3)n2)ccc1F [Example 27, N-(3-(5-chloro-2-(4-fluoro-3-(N-methylacrylamido)phenylamino)pyrimidinyl-4-amino)propyl)-1-methylpiperidinyl-4-formamide] | 0.59 | 35 | 0.45 | 42 | – | – | 85 | 30 | 6 | –
5 | C=CC(=O)Nc1cc(Nc2ncc(Cl)c(NCCCNC(=O)c3ccc(C#N)cc3)n2)ccc1F [Example 28, N-(3-(2-(3-acrylamido-4-fluorophenylamino)-5-chloropyrimidinyl-4-amino)propyl)-4-cyano-benzamide] | 0.85 | 81 | 0.40 | 34 | 0.03 | 2 | 77 | 81 | 98 | –
6 | C=CC(=O)N(C)c1cc(Nc2ncc(Cl)c(NCCCNC(=O)c3ccc(C(F)F)cc3)n2)ccc1F [Example 115, N-(3-(5-chloro-2-(4-fluoro-3-(N-methylacrylamido)phenylamino)pyrimidinyl-4-amino)propyl)-4-difluoromethylbenzamide] | 0.98 | 81 | 0.49 | 42 | – | 0 | 3 | 71 | – | –
7 | C=CC(=O)N(C)c1cc(Nc2ncc(Cl)c(NCCCCCCNC(=O)c3ccc(C#N)cc3)n2)ccc1F [Example 123, N-(6-(5-chloro-2-(4-fluoro-3-(N-methylacrylamido)phenylamino)pyrimidinyl-4-amino)hexyl)-4-cyanobenzamide] | 0.95 | – | – | – | – | – | – | – | – | JAK3 % inhibitory rate @30 nM (JAK3): 79%; JAK1 % inhibitory rate @300 nM (JAK1): 0%; JAK2 % inhibitory rate @30 nM (JAK2): 0%; CTLL-2 % growth rate @300 nM (CTLL-2 cells; 300 nM, 24 h): 5%; HeLa % growth rate @10 μM (HeLa cells): 5%
8 | CN(Cc1cnc2nc(N)nc(N)c2n1)c1ccc(C(=O)N[C@@H](CCC(=O)O)C(=O)O)cc1 [MTX, methotrexate, reference compound] | – | – | – | – | – | – | – | – | – | Inhibitory rate for arthritis score % [1, 2]: 73.1%; Inhibitory rate for paw volume % [1, 2]: 43.1%; Inhibitory rate for toe thickness % [1, 2]: 70.2%; Body weight growth rate % ([1]; 14 days after administration, solvent = 100.0, Examples 40 mg/kg i.g. twice/day, MTX 5 mg/kg i.p. twice a week): 95.4%; toxicity to the rats judged from body weight ([1]; compared to the solvent group): certain toxicity
9 | C[C@@H]1CCN(C(=O)CC#N)C[C@@H]1N(C)c1ncnc2[nH]ccc12 [Xeljanz, tofacitinib citrate, reference compound] | – | – | – | – | – | – | – | – | – | GI50 (CTLL-2 cells; Mus musculus, CTLL-2, 24 h): 67 nM; GI50 (HeLa cells; Homo sapiens, HeLa): > 40 µM; GI50 (HUVEC cells): > 40 µM
